Reference: US20040071768A1, “Compositions and methods for treating cancer” (Inex Pharmaceuticals Corporation, priority 1999, published 2004)

Assays:
[1] = system: MDA-MB-435 breast xenografts; conditions: positive control
Procedure: Female NCr nude mice were injected intravenously (q7dx3, beginning day 15) via the lateral tail vein. […] Paclitaxel (⋄) was prepared in […]/12.5% ethanol/75% saline and injected iv (q1dx5) at a dose of 15 mg/kg/dose. Drug-to-lipid ratio was 0.3/1 (w/w). Data points represent median tumor volume (n=6).
(§1) The anti-tumor activity of multiple (q7d3) dose schedules of liposomal vinorelbine was evaluated in several human xenograft tumor models. The goal of this series of studies was to identify the benefits of encapsulation by evaluating a series of doses and determining the therapeutic index in several xenograft models. Models were selected based on the following criteria: (1) activity in the single dose studies, (2) a comprehensive literature review of vinca alkaloid efficacy, (3) a desire to include at least 2-3 models that represent the clinical use of vinorelbine, and (4) a desire to include models with a range of sensitivity to vinorelbine so that improvements resulting from the use of the liposome formulation might be identified. Based on these criteria, MX-1 and MDA-MB-435 breast models, the NCl-H460 NSCLC model and the HT-29 and DLD-1 colon models were chosen.
(§2) Therapeutic index (TI) is a parameter that quantifies the “safety factor” of a particular therapy. TI is a ratio of a toxicity parameter and a biological activity parameter. Therefore, a higher ratio represents a greater potential margin of safety. For these studies, TI is defined as follows: […]
(§3) The minimal effective dose (MED) was set according to NCl activity criteria as the dose resulting in an optimal % T/C of 40. This information was derived from Table 7.

[2] = adults, cited from earlier work
[3] = system: DLD-1 colon xenografts; conditions: positive control
Procedure: Female NCr nude mice were injected intravenously (q7dx3) via the lateral tail vein on days indicated by an asterisk (*). […] Irinotecan (⋄) was prepared in saline and injected iv (q4dx3) at a dose of 90 mg/kg/dose. Drug-to-lipid ratio was 0.3/1 (w/w). Data points represent median tumor volume (n=6).
as §1, §2, §3

[4] = system: NCl H460 non small cell lung xenografts; assay: Multiple dose (q7dx3) anti-tumor activity, NCl H460 non small cell lung xenograft; conditions: positive control
Procedure: Female NCr nude mice were injected intravenously (q7dx3, beginning day 7) via the lateral tail vein. […] Mitomycin C (⋄) was prepared in saline and injected iv (q4dx3) at a dose of 3 mg/kg/dose. Drug-to-lipid ratio was 0.3/1 (w/w). Data points represent median tumor volume (n=6).
as §1, §2, §3

**Q.** What does the source list for `CC(=O)O[C@H]1C(=O)[C@@]2(C)[C@H]([C@H](OC(=O)c3ccccc3)[C@]3(O)C[C@H](OC(=O)[C@H](O)[C@@H](NC(=O)c4ccccc4)c4ccccc4)C(C)=C1C3(C)C)[C@]1(OC(C)=O)CO[C@@H]1C[C@@H]2O` [Paclitaxel]?
**A.** % T/C (optimal % T/C following final treatment) ([1]; 15 mg/kg/dose iv q1dx5): −55%; NCI Score ([1]; 15 mg/kg/dose iv q1dx5): 3; T-C (tumor growth delay to 1000 mm^3) ([1]; 15 mg/kg/dose iv q1dx5): 36.9; TF (tumor free animals at the end of study) ([1]; 15 mg/kg/dose iv q1dx5, n=6): 0

**Q.** Which “total dose at which peripheral neuropathic effects usually begin” value ([2]; 2-3 doses) does the source give for `CC[C@]1(O)C[C@H]2CN(CCc3c([nH]c4ccccc34)[C@@](C(=O)OC)(c3cc4c(cc3OC)N(C=O)[C@H]3[C@@](O)(C(=O)OC)[C@H](OC(C)=O)[C@]5(CC)C=CCN6CC[C@]43[C@@H]65)C2)C1` [free vincristine, 22-oxovincaleukoblastine] here?
**A.** 5 to 6 mg

**Q.** What about the “cumulative dose after which peripheral neuropathic effects are generally significant” value ([2]; 8-10 doses) of the same compound?
**A.** 15 to 20 mg

**Q.** Which “% T/C (optimal % T/C following final treatment)” value ([3]; 90 mg/kg/dose iv q4dx3) does the source give for `CCc1c2c(nc3ccc(OC(=O)N4CCC(N5CCCCC5)CC4)cc13)-c1cc3c(c(=O)n1C2)COC(=O)[C@]3(O)CC` [Irinotecan] here?
**A.** 11%

**Q.** What about the “DRD (drug related deaths, n = 6)” value ([3]; 90 mg/kg/dose iv q4dx3) of the same compound?
**A.** 0

**Q.** What about the “NCI Score” value ([3]; 90 mg/kg/dose iv q4dx3) of the same compound?
**A.** 1

**Q.** And the “T-C (tumor growth delay to 1000 mm^3)” value ([3]; 90 mg/kg/dose iv q4dx3)?
**A.** 17.2

**Q.** And the “TF (tumor free animals at the end of study)” value ([3]; 90 mg/kg/dose iv q4dx3, n=6)?
**A.** 0

**Q.** Which “% T/C (optimal % T/C following final treatment)” value ([4]; 3 mg/kg/dose iv q4dx3) does the source give for `CO[C@@]12[C@H](COC(N)=O)C3=C(C(=O)C(C)=C(N)C3=O)N1C[C@@H]1N[C@@H]12` [Mitomycin C] here?
**A.** 5%

**Q.** What about the “DRD (drug related deaths, n = 6)” value ([4]; 3 mg/kg/dose iv q4dx3) of the same compound?
**A.** 0

**Q.** And the “NCI Score” value ([4]; 3 mg/kg/dose iv q4dx3)?
**A.** 1

**Q.** And the “T-C (tumor growth delay to 1000 mm^3)” value ([4]; 3 mg/kg/dose iv q4dx3)?
**A.** 22.2

**Q.** What about the “TF (tumor free animals at the end of study)” value ([4]; 3 mg/kg/dose iv q4dx3, n=6) of the same compound?
**A.** 0
